Measurements: patent publication US20260174769A1, “MACROCYCLIC COMPOUNDS AND METHODS OF USE” (AMGEN INC., priority 2022, published 2026)
Where two headings read alike, the source gives them in different places.

Assays:
[1] = 16-membered ring
[2] = test system: MIA PaCa-2 cells; experiment: MIA PaCa-2 CTG Assay (CellTiter-Glo cell viability, 72 h); type: cell-based, human; details: Homo sapiens, second value of cell, read-out: G12D/C/V Cell Proliferation CTG (72 h) Mia PaCa-2
Protocol: MIA PaCa-2 CTG Assay Protocol
(§1) Serially-diluted compound or DMSO was added to the cells, and plates were incubated at 37° C., 5% CO2 for 72 h. Cell viability was measured using a CellTiter-Glo® Luminescent Cell Viability Assay kit (Promega) according to the manufacturer's protocol. The luminescence signal of treated samples was normalized to DMSO control, and data were analyzed using a 4-parameter logistic model to calculate IC50 values.

[3] = test system: AsPC-1 cells; experiment: AsPC-1 CTG Assay (CellTiter-Glo cell viability, 72 h); type: cell-based, human; details: read-out: G12D/C/V Cell Proliferation CTG (72 h) AsPC-1
Protocol: AsPC-1 and SW620 CTG Assay Protocols
as §1

[4] = test system: Phosphorylation of ERK1/2 in AsPC-1 cells; experiment: Phospho-ERK1/2 MSD Assay; type: cell-based, human; details: read-out: 2 h p-ERK (AsPC-1 cells), IC50
Protocol: Sixteen hours prior to compound treatment, AsPC-1 cells were seeded in 96-well cell culture plates at a density of 25,000 cells/well and incubated at 37° C., 5% CO2. A compound dose-response titration was diluted in growth media, added to appropriate wells of a cell culture plate, and then incubated at 37° C., 5% CO2 for 2 hours. […] Phosphorylation of ERK1/2 in compound-treated lysates was assayed using Phospho-ERK 1/2 Whole Cell Lysate kits (Meso Scale Discovery K151DWD) according to the manufacturer's protocol. Assay plates were read on a Meso Scale Discovery Sector Imager 6000, and data were analyzed using a 4-parameter logistic model to calculate IC50 values.

[5] = target: His-tagged KRAS G12D protein (Homo sapiens, UniProt P01116, G12D); experiment: KRAS G12D TR-FRET Assay; type: binding
Outline: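 GDP-loaded His-KRAS G12D (20 nM in HEPES pH 7.4, MgCl2, NaCl, BSA, Tween-20, 10 μM GDP) preincubated with compound 30 min at room temperature, then 20 nM biotinylated KRPep-2d peptide added for 1 h. TR-FRET detection used Eu anti-His and streptavidin-d2, read after 1 h.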

[6] = target: GDP-bound KRAS protein (aa 1-169), containing both G12D and C118A amino acid substitutions (Homo sapiens, UniProt P01116, C118A/G12D); experiment: KRAS G12D Coupled Nucleotide Exchange Assay; type: biochemical
Protocol: KRAS G12D Coupled Nucleotide Exchange Assay
The assay plates were then read on a PerkinElmer En Vision Multilabel Reader, using AlphaScreen® technology, and data were analyzed using a 4-parameter logistic model to calculate IC50 values.

[7] = Homo sapiens, ASPC1, 72 h, AsPC-1 cells, 72 h, first value of the cell
[8] = Homo sapiens, ASPC1, 2 h, AsPC-1 cells, 2 h
[9] = Homo sapiens, ASPC1, 72 h, AsPC-1 cells, 72 h, first value of cell
[10] = Homo sapiens, ASPC1, 2 h, AsPC-1 cells, 2 h compound treatment
[11] = 2 hours compound pre-incubation, SOS-mediated nucleotide exchange
[12] = read-out: KRAS G12D Binding IC50

In the case of CN1C(=O)CCCCc2c(Cl)cc3[nH]ncc3c2-c2cc3nc(OC[C@@]45CCCN4C[C@H](F)C5)nc(c3nn2)N2CCC[C@@H]1C2, the ring closure, yield after HPLC ([1]; from CN[C@@H]1CCCN(c2nc(OC[C@@]34CCCN3C[C@H](F)C4)nc3cc(-c4c(CCCCC(=O)O)c(Cl)cc5[nH]ncc45)nnc23)C1, amide bond, EDCI/HOBt/DIEA, DCM, 10.3 mM, 25.0 °C, 36.0 h, 3 steps) is reported as 20%.
In the case of CN1C(=O)OCCCc2c(Cl)cc3[nH]ncc3c2-c2ncc3c(nc(OC[C@@]45CCCN4C[C@H](F)C5)nc3c2F)N2CCC[C@@H]1C2, the ring closure, yield after HPLC ([1]; from CN(C(=O)OCCCc1c(Cl)cc2[nH]ncc2c1-c1ncc2c(O)nc(OC[C@@]34CCCN3C[C@H](F)C4)nc2c1F)[C@@H]1CCCNC1, snar bond, PyBroP/DIEA, MeCN/DMSO, 11.7 mM, 25.0 °C, 2 steps) is reported as 14%.
CSc1nc2c3cnc(c(C)c3n1)-c1cc(O)cc3ccc(F)c(c13)CCCC(=O)N[C@]1(C)CCCN2C1 showed a ring closure, yield after HPLC ([1]; from CSc1nc(N2CCC[C@@](C)(N)C2)c2cnc(-c3cc(O)cc4ccc(F)c(CCCC(=O)O)c34)c(C)c2n1, amide bond, HATU, then Me2NH, DCM/DMA/DMF, 5.6 mM, 25.0 °C) of 32%.
Cc1cc2[nH]ncc2c(-c2ncc3c(O)nc(OC[C@@]45CCCN4C[C@H](F)C5)nc3c2F)c1CCOC(=O)OC[C@@H]1CCCNC1 showed a ring closure, yield after HPLC ([1]; the molecule shown is the open-chain precursor, snar bond) of 20%.
Work on O=C1CCCc2c(F)ccc3cccc(c23)-c2ncc3c(nc(OC[C@@]45CCCN4C[C@H](F)C5)nc3c2F)N2CCC[C@H](C2)N1 yielded a ring closure, yield after HPLC ([1]; from N[C@@H]1CCCN(c2nc(OC[C@@]34CCCN3C[C@H](F)C4)nc3c(F)c(-c4cccc5ccc(F)c(CCCC(=O)O)c45)ncc23)C1, amide bond, HATU/DIEA, DMF, 5.9 mM, 0.5 h, 2 steps) of 30%.
C[C@@]12CCCCN(C1)c1nc(OC[C@@]34CCCN3C[C@H](F)C4)nc3c(F)c(ncc13)-c1c(c(Cl)cc3[nH]ncc13)CCCC(F)C(=O)N2 (mixture of isomers) [Example 281, (23RS,26R)-18-chloro-23,32-difluoro-4-(((2R,7aS)-2-fluorotetrahydro-1H-pyrrolo[1,2-a]pyrrol-7a(5H)-yl)methoxy)-26-methyl-1,3,5,9,14,15,25-heptaazahexacyclo[24.4.1.1~6,10~.0~2,7~.0~11,19~.0~12,16~]dotriaconta-2,4,6,8,10(32),11,13,16,18-nonaen-24-one] gave an IC50 [2] of 90 nM.
Work on O[C@H]1C[C@@H]2CN(C1)c1nc(OC[C@@]34CCCN3C[C@H](F)C4)nc3c(F)c(ncc13)-c1c(c(Cl)cc3[nH]ncc13)CCCc1nc2no1 (racemic) [Example 377, (rac-18R,20S)-9-chloro-31-fluoro-25-(((2R,7a.S)-2-fluorotetrahydro-1H-pyrrolo[1,2-a]pyrrol-7a(5H)-yl)methoxy)-15-oxa-5,6,16,22,24,26,30,33-octaazaheptacyclo[25.3.1.1~14,17~.1~18,22~.0~2,10~0~3.7~.0~23,28~]tritriaconta-1(31),2,4,7,9,14(33),16,23,25,27,29-undecaen-20-ol] yielded an IC50 [3, 7] of 125 nM, an IC50 [4, 8] of 9.9 nM and an IC50 ([5]; TR-FRET, read-out: KRAS G12D Binding IC50) of 5 nM.
In the case of Cc1cc2[nH]ncc2c2c1CCCOC(=O)CC1CCCN(C1)c1nc(OC[C@@]34CCCN3C[C@H](F)C4)nc3c(F)c-2ncc13 (some centres unmarked) [Example 39], the IC50 [3, 9] is reported as 191 nM and the IC50 [4, 10] is reported as 16 nM.
Work on C[C@@]12CCCN(C1)c1nc(OC[C@@]34CCCN3C[C@H](F)C4)nc3c(F)c(ncc13)-c1cc(O)cc3ccc(F)c(c13)CCCC(=O)O2 [Example 43, (15R)-22,31-Difluoro-8-(((2R,7aS)-2-fluorotetrahydro-1H-pyrrolo[1,2-a]pyrrol-7a(5H)-yl)methoxy)-27-hydroxy-15-methyl-16-oxa-3,7,9,11-tetraazahexacyclo[19.7.1.1˜2,6˜.1˜11,15˜.0˜5,10˜.0˜25,29˜]hentriaconta-1(28),2(31),3,5,7,9,21,23,25(29),26-decaen-17-one bis(2,2,2-trifluoroacetate)] yielded an IC50 [3, 9] of 92 nM, an IC50 [4, 10] of 13 nM and an IC50 [6, 11] of 2 nM. For the same compound, the IC50 ([5]; TR-FRET binding) was 4 nM.
In the case of CC1COC(=O)C[C@@H]2CCCN(C2)c2nc(OC[C@@]34CCCN3C[C@H](F)C4)nc3c(F)c(ncc23)-c2c(c(Cl)cc3[nH]ncc23)C1 (some centres unmarked) [Example 91], the IC50 [3, 9] is reported as 280 nM, the IC50 [4, 10] is reported as 27 nM and the IC50 [6, 11] is reported as 2 nM. For the same compound, the IC50 ([5]; TR-FRET binding) was 4 nM.
For C[C@@]12COCCN(C1)c1nc(OC[C@@]34CCCN3C[C@H](F)C4)nc3c(F)c(ncc13)-c1c(c(F)cc3[nH]ncc13)CCCOC(=O)O2 [Example 184, (26S)-18,32-difluoro-4-(((2R,7aS)-2-fluorotetrahydro-1H-pyrrolo[1,2-a]pyrrol-7a(5H)-yl)methoxy)-26-methyl-23,25,28-trioxa-1,3,5,9,14,15-hexaazahexacyclo[24.4.1.1~6,10~.0~2,7~.0~11,19~.0~12,16~]dotriaconta-2,4,6,8,10(32),11,13,16,18-nonaen-24-one], the IC50 [3, 9] was 120 nM, the IC50 [4, 10] was 11.8 nM and the IC50 [6, 11] was 2 nM. It also gave an IC50 ([5]; TR-FRET binding) of 4 nM.
Compound O=C1OCCCc2c(Cl)cccc2-c2ncc3c(nc(OC[C@@]45CCCN4C[C@H](F)C5)nc3c2F)N2CCOC[C@H](C2)O1 [Example 186, (23S)-15-chloro-29-fluoro-4-(((2R,7aS)-2-fluorotetrahydro-1H-pyrrolo[1,2-a]pyrrol-7a(5H)-yl)methoxy)-20,22,25-trioxa-1,3,5,9-tetraazapentacyclo[21.4.1.1~6,10~.0~2,7~.0~11,16~]nonacosa-2,4,6,8,10(29),11,13,15-octaen-21-one] has an IC50 [3, 9] of 1950 nM, an IC50 [4, 10] of 200 nM and an IC50 ([5]; TR-FRET binding) of 12 nM.
Cc1cc2[nH]ncc2c2c1CCCCOCC1CN(CCC1(F)F)c1nc(OC[C@@]34CCCN3C[C@H](F)C4)nc3c(F)c-2ncc13 (stereo partly drawn) [Example 227, (17R)-18,18,30-trifluoro-24-(((2R,7aS)-2-fluorotetrahydro-1H-pyrrolo[1,2-α]pyrrol-7a(SH)-yl)methoxy)-9-methyl-15-oxa-5,6,21.23,25,29-hexaazahexacyclo[24.3.1.1~17,21~.0~2,10~.0~3.7~.0~22,27~]hentriaconta-1(30),2,4,7,9,22,24,26,28-nonaene] showed an IC50 [3] of 3910 nM, an IC50 [4] of 611 nM and an IC50 [6] of 12 nM. For the same compound, the IC50 [5, 12] was 35 nM.
Work on O=C1COCCc2c(Cl)cc3[nH]ncc3c2-c2ncc3c(nc(OC[C@@]45CCCN4C[C@H](F)C5)nc3c2F)N2CC[C@H]3CCN1[C@H]3C2 [Example 270] yielded an IC50 [3, 9] of 606 nM, an IC50 [4, 10] of 123 nM and an IC50 [2] of 675 nM. For the same compound, the IC50 ([5]; TR-FRET binding) was 7 nM.
O=C1OCCCc2c(Cl)cc3[nH]ncc3c2-c2ncc3c(nc(OC[C@@]45CCCN4C[C@H](F)C5)nc3c2F)N2CCC[C@]3(C2)C[C@H](C3)O1 [Example 323, (1R,3S)-11-chloro-33-fluoro-25-(((2R,7aS)-2-fluorotetrahydro-1H-pyrrolo[1,2-a]pyrrol-7a(5H)-yl)methoxy)-4,6-dioxa-14,15,20,24,26,28-hexaazaheptacyclo[26.3.1.1~1,3~.1~19,23~.0~10,18~.0~13,17~.0~22,27~]tetratriaconta-10,12,15,17,19(33),20,22,24,26-nonaen-5-one] showed an IC50 [3, 9] of 318 nM and an IC50 [4, 10] of 30.5 nM.
For O[C@H]1C[C@@H]2CN(C1)c1nc(OC[C@@]34CCCN3C[C@H](F)C4)nc3c(F)c(ncc13)-c1c(c(Cl)cc3[nH]ncc13)CCCc1nc2no1 [Example 378, (18R,20S)-9-chloro-31-fluoro-25-(((2R,7aS)~2-fluorotetrahydro-1H-pyrrolo[1,2-α]pyrrol-7a(5H)-yl)methoxy)-15-oxa-5,6,16,22,24,26,30,33-octaazaheptacyclo[25.3.1.1~14,17~.1~18,22~.0~2,10~0~3,7~.0~23,28~]tritriaconta-1(31),2,4,7,9,14(33),16,23,25,27,29-undecaen-20-ol], the IC50 [3, 7] was 782 nM and the IC50 [4, 8] was 47.7 nM.
Compound “(185)-9-chloro-31-fluoro-25-(((2R,7a.S)-2-fluorotetrahydro-LH-pyrrolo[1,2-α]pyrrol-7a(5H)-yl)methoxy)-15-oxa-5,6,22,24,26,30,33-heptaazaheptacyclo[25.3.1.1~13,16~1~18,22~0~2,10~.0~3,7~.0~23,28~]tritriaconta-1(31),2,4,7,9,13,16(33),23,25,27,29-undecaene [Example 388]” has an IC50 [4] of 264 nM, an IC50 [6] of 5 nM and an IC50 [5, 12] of 13 nM.
